Tests used:
[1] = statement in words; reference not given; cited from earlier work
[2] = statement in words; reference not given; cited from earlier work; remark: listed apart in the source
[3] = Inhibition of cell proliferation (MTT method), Vero cells; assay type: cell-based; conditions: African green monkey, Vero cells (African green monkey kidney), concentration which inhibited cell growth by 50% vs control cultures, mean of three assays
[4] = Inhibition of cell proliferation (MTT method), MDCK cells; assay type: cell-based; conditions: dog, MDCK cells (Madin-Darby canine kidney), concentration which inhibited cell growth by 50% vs control cultures, mean of three assays
[5] = tested on: HFF cells; experiment: Inhibition of cell proliferation (MTT method), HFF cells; assay type: cell-based, human; conditions: concentration which inhibited cell growth by 50% vs control cultures, mean of three assays
[6] = Inhibition of cell proliferation (MTT method), HEp-2 cells; assay type: cell-based, human; conditions: human, HEp-2 cells (human epidermoid carcinoma larynx), concentration which inhibited cell growth by 50% vs control cultures, mean of three assays, read-out: CC50 HEp2
[7] = Inhibition of cell proliferation (MTT method), BS-C-1 cells; assay type: cell-based; conditions: African green monkey, BS-C-1 cells (African green monkey kidney), concentration which inhibited cell growth by 50% vs control cultures, mean of three assays
[8] = Inhibition of cell proliferation (MTT method), HFF cells; assay type: cell-based, human; conditions: human, HFF cells (human foreskin fibroblasts), concentration which inhibited cell growth by 50% vs control cultures, mean of three assays
[9] = tested on: HEp-2 cells; experiment: Inhibition of cell proliferation (MTT method), HEp-2 cells; assay type: cell-based, human; conditions: concentration which inhibited cell growth by 50% vs control cultures, mean of three assays, read-out: CC50 HEp2

Structure (SMILES) | melting point [°C] | antiviral activity [1] | cytotoxicity [2] | CC50 [3] [µM] | CC50 [4] [µM] | CC50 [5] [µM] | CC50 [6] [µM] | CC50 [7] [µM] | CC50 [8] [µM] | CC50 [9] [µM]
Cc1cn([C@@H]2C[C@H](CO)N(C)O2)c(=O)[nH]c1=O [compound 8, (3′RS,5′SR)-2′-N-methyl-3′-hydroxymethyl-1′,2′-isoxazolidin-5′-ylthymine] |  | endowed with antiviral activity | do not show any cytotoxicity |  |  |  |  |  |  | 
CCCCCc1ccc(-c2cn(C[C@H]3C[C@@H](n4cc(C)c(=O)[nH]c4=O)ON3C)nn2)cc1 [13g] | 259 to 260 |  |  | 10 | 10 | 5 | 20 | 10 |  | 
Cc1cn([C@@H]2C[C@H](Cn3cc(-c4ccc(F)cc4)nn3)N(C)O2)c(=O)[nH]c1=O [13f] | 269 to 271 |  |  | 10 | 10 |  |  | 10 | 40 | 40
Cc1cn([C@@H]2C[C@H](Cn3cc(-c4ccccc4)nn3)N(C)O2)c(=O)[nH]c1=O [13d] | 268 to 272 |  |  | 20 | 20 | 5 | 20 | 20 |  | 
CCCc1cn(C[C@H]2C[C@@H](n3cc(C)c(=O)[nH]c3=O)ON2C)nn1 [13c] | 132 to 137 |  |  | 20 | 20 | 5 |  | 20 |  | 40
Cc1cn([C@@H]2C[C@H](Cn3cc(CO)nn3)N(C)O2)c(=O)[nH]c1=O [13b] | 205 to 210 |  |  | 40 | 30 |  |  | 30 | 30 | 40
COc1ccc(-c2cn(C[C@H]3C[C@@H](n4cc(C)c(=O)[nH]c4=O)ON3C)nn2)cc1 [13e] | 215 to 218 |  |  | 20 | 20 | 5 |  | 20 |  | 40
Cc1cn([C@@H]2C[C@H](Cn3cc(CCO)nn3)N(C)O2)c(=O)[nH]c1=O [13a] | 215 to 218 |  |  | 10 | 10 |  |  | 10 | 10 | 40

Continued, in another order:

melting point [°C] | Structure (SMILES) | antiviral activity [1] | cytotoxicity [2] | CC50 [3] [µM] | CC50 [4] [µM] | CC50 [5] [µM] | CC50 [6] [µM] | CC50 [7] [µM] | CC50 [8] [µM] | CC50 [9] [µM]
245 to 248 | CCCCCc1ccc(-c2cn(C[C@H]3C[C@H](n4cc(C)c(=O)[nH]c4=O)ON3C)nn2)cc1 [14g] |  |  | 10 | 10 | 5 | 20 | 10 |  | 
230 to 233 | Cc1cn([C@H]2C[C@H](Cn3cc(-c4ccc(F)cc4)nn3)N(C)O2)c(=O)[nH]c1=O [14f] |  |  | 20 | 20 | 5 |  | 20 |  | 40
168 to 170 | CCCc1cn(C[C@H]2C[C@H](n3cc(C)c(=O)[nH]c3=O)ON2C)nn1 [14c] |  |  | 20 | 20 | 5 |  | 20 |  | 40
202 to 205 | COc1ccc(-c2cn(C[C@H]3C[C@H](n4cc(C)c(=O)[nH]c4=O)ON3C)nn2)cc1 [14e] |  |  | 20 | 20 | 5 |  | 20 |  | 40
198 to 201 | Cc1cn([C@H]2C[C@H](Cn3cc(CO)nn3)N(C)O2)c(=O)[nH]c1=O [14b] |  |  | 20 | 20 |  |  | 10 | 20 | 40
233 to 235 | Cc1cn([C@H]2C[C@H](Cn3cc(-c4ccccc4)nn3)N(C)O2)c(=O)[nH]c1=O [14d] |  |  | 5 | 5 | 5 | 5 | 5 |  | 
202 to 206 | Cc1cn([C@H]2C[C@H](Cn3cc(CCO)nn3)N(C)O2)c(=O)[nH]c1=O [14a] |  |  | 20 | 20 |  |  | 20 | 20 | 40

Source: article PMC4362054, “C-5’-Triazolyl-2’-oxa-3’-aza-4’a-carbanucleosides: Synthesis and biological evaluation” (Beilstein Journal of Organic Chemistry, 2015)
